System: cancer cell lines, DetermaIO classes
Experiment: Association of PRISM compound sensitivity with DetermaIO (DTIO) cell line classes
Type: cell-based
Conditions: association of compound sensitivity with DetermaIO classes; for DTIO Corr test: test data set; for DTIO Corr train: training data set

Row | SMILES | DTIO Corr test | DTIO Corr train
1 | CS(=O)(=O)CCNCc1ccc(-c2ccc3ncnc(Nc4ccc(OCc5cccc(F)c5)c(Cl)c4)c3c2)o1 [K19687926] | −0.0302 | −0.08369
2 | COc1cc2nc(N3CCCN(C)CC3)nc(NC3CCN(Cc4ccccc4)CC3)c2cc1OC [K26818574] | 0.2463 | 0.08377
3 | CNC(=O)c1ccccc1Sc1ccc2c(/C=C/c3ccccn3)n[nH]c2c1 [K29905972] | 0.004812 | 0.0816
4 | N#Cc1c(Oc2ccc(F)c(NC(=O)Cc3cccc(C(F)(F)F)c3)c2)ccc2nc(NC(=O)C3CC3)sc12 [K31866293] | 0.2089 | 0.08489
5 | C=CC(=O)Nc1cc(Nc2nccc(-c3cn(C)c4ccccc34)n2)c(OC)cc1N(C)CCN(C)C [K42805893] | 0.0753 | −0.06781
6 | C[C@@H]1COC(Nc2ccc3ncnc(Nc4ccc(OCc5nccs5)c(Cl)c4)c3c2)=N1 [K46386702] | −0.03109 | −0.05992
7 | COc1cc2nccc(Oc3ccc(NC(=O)Nc4ccc(F)cc4F)c(F)c3)c2cc1OC [K47150025] | 0.03732 | 0.02512
8 | NC(=O)c1cccc2cn(-c3ccc([C@@H]4CCCNC4)cc3)nc12 [K54955827] | −0.03477 | 0.03577
9 | COc1cc(N2CCC(N3CCN(C)CC3)CC2)ccc1Nc1ncc(Cl)c(Nc2ccccc2P(C)(C)=O)n1 [K56981171] | 0.04024 | −0.1728
10 | OCCn1cc(-c2ccc3c(c2)CC/C3=N\O)c(-c2ccncc2)n1 [K67578145] | 0.1581 | 0.1101
11 | O=c1cc(-c2ccccc2)oc2cc(O)c(O)c(O)c12 [K72327355] | −0.04244 | −0.1442
12 | Nc1nccc2c1ncn2C1C=C(CO)C(O)C1O (centres unmarked) [K77791657] | −0.05245 | −0.1309
13 | CC[C@@]1(O)C(=O)OCc2c1cc1n(c2=O)Cc2cc3c([N+](=O)[O-])cccc3nc2-1 [K79821389] | −0.06417 | −0.1178
14 | C=C1/C(=C\C=C2/CCC[C@]3(C)[C@@H]([C@H](C)OCCC(C)(C)O)CC[C@@H]23)C[C@@H](O)C[C@@H]1O [K81332461] | −0.00506 | −0.07504
15 | Cn1c(Nc2ccc(C(F)(F)F)cc2)nc2cc(Oc3ccnc(-c4ncc(C(F)(F)F)[nH]4)c3)ccc21 [K93123848] | 0.1916 | 0.1011
16 | O=C1[C@H](Cc2ccc(O)cc2)N2C(=O)CCN(C(=O)NCc3ccccc3)[C@H]2CN1Cc1cccc2ccccc12 [K94455792] | 0.1635 | 0.1783

Source: US20250140406A1, “CLASSIFYING TUMORS AND PREDICTING RESPONSIVENESS” (Oncocyte Corporation, priority 2022, published 2025)
